{
  "source": "patent US11123349B2",
  "about": "“Method of treatment” (The University of Melbourne, priority 2017, dated 2021)",
  "key": {"[1]": {"test_system": "TNF production from whole blood stimulated with LPS", "assay": "Whole blood assay: LPS-induced TNF-α production (L929 fibrosarcoma cell bioassay)", "assay_type": "cell-based, horse", "procedure": "(§1) A whole blood assay was used to assess the effects of rolipram and doramapimod on cytokine production from leukocytes (white blood cells) in response to bacterial lipopolysaccharide (endotoxin).\n(§2) Blood samples (10 mL; sodium citrate anticoagulant) were obtained from the six normal horses, diluted 1:1 with RPMI 1640 cell culture medium and aliquoted into 15×1 mL aliquots. Serial dilutions of rolipram and doramapimod were made from 10^−2M stock solutions in phosphate-buffered saline and DMSO, respectively, and 10 μL added to […] give final concentrations ranging from 10^−10-10^−4 Molar. The samples were then incubated with 100 ng/mL purified bacterial lipopolysaccharide (endotoxin derived from E. Coli O55:B5; purified to remove DNA and protein contaminants). After incubation for 18 hours at 37° C. in a shaking incubator, samples were centrifuged at 300 g and supernatants stored at −80° C. for cytokine analysis.\nThe proinflammatory cytokine, TNF-α, was measured using a L929 fibrosarcoma cell bioassay. […] The yellow tetrazole dye, 3-(4,5-dimethylthiazol-2-yl)-2,5-diphenyltetrazolium bromide (MTT), is reduced to a purple formazan compound in living cells, which is then quantified using a colorimetric plate reader (absorbance read at 570 nm with reference wavelength of 650 nm). […]\n(§3) The data are expressed as % inhibition of LPS-induced cytokine production at each of the drug concentrations. […]"}, "[2]": {"test_system": "IL-1 production from whole blood stimulated with LPS", "assay": "Whole blood assay: LPS-induced IL-1β production (ELISA)", "assay_type": "cell-based, horse", "procedure": "as §1, §2\nPlasma IL-1β concentrations were measured using an equine-specific enzyme linked immunosorbent assay (ELISA; Horse IL-1β ELISA kit, Bethyl Laboratories, Montgomery, Tex., USA). […] The optical density (OD) values of samples were determined at 450 nm using an ELISA plate reader (BioTek Synergy H1) and concentrations determined using GENS Software (version 2.00.17).\nas §3"}, "[3]": {"assay": "Solubility / formulation for intravenous administration", "assay_type": "physicochemical", "experimental": "Solubility of the drugs was tested to determine their suitability for intravenous administration (this is the route of choice for the treatment of endotoxemia)."}, "[4]": {"details": "equine whole blood, LPS, 18 hours"}},
  "note": "Read-outs that look alike come from different tables or passages of the source.",
  "data": [
    {"molecule": "COc1ccc(C2CNC(=O)C2)cc1OC1CCCC1", "note": "(stereo not drawn) [rolipram]", "values": [
      {"measurement": "IC50", "setting": "[1]; Equus caballus, L929, equine whole blood diluted 1:1 with RPMI 1640, LPS, 18 hours at 37° C., read-out: IC50, inhibition of TNFa production", "result": 653, "unit": "nM"},
      {"measurement": "inhibition of TNFa production at high concentrations", "setting": "[1]; [4]", "result": "~100", "unit": "%"},
      {"measurement": "IC50", "setting": "[2]; Equus caballus, equine whole blood diluted 1:1 with RPMI 1640, LPS, 18 hours at 37° C., read-out: IC50, inhibition of IL-1 production", "result": 1020, "unit": "nM"},
      {"measurement": "maximum inhibition of IL-1 production", "setting": "[2]; [4]", "result": "39.5±7.1", "unit": "%"},
      {"measurement": "solubility", "setting": "[3]; 10% DMSO, aqueous with cosolvent or surfactant or cyclodextrin, read-out: soluble in 10% DMSO to", "result": 1000, "unit": "µg/mL"},
      {"measurement": "solubility", "setting": "[3]; water, read-out: water soluble to", "result": 200, "unit": "µg/mL"}
    ]}
  ]
}
